Drawing on PubChem BioAssay AID1324 (NMMLSC, 2008), this text covers EC50 and percent span inhibition for 90 molecules.

Molecules are shown by their SMILES. Calls of active or inactive are those of the source. How the calls were made is not given here.

Broadly, the EC50 is the concentration giving half of the maximal effect.

One assay has as its target glutathione S-transferase (GST-GSH binding). Kind of assay: GST–glutathione interaction disruption – biochemical, multiplex beads, flow cytometry, HPSMTB buffer, profiling panel (AID 1324).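 Further: glutathione beads loaded with GST-green fluorescent protein and no fluorescent Bim peptide.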 Particulars: multiplex bead flow cytometry, MCF. (Flow cytometry measures light scatter and fluorescence of single cells or particles in a stream.)
With `COc1cc2[nH]c(=S)nc(NCC3CCCO3)c2cc1OC` (stereo not given), the EC50 result is “inactive”.

For the molecule `COc1cc(/C=N/Nc2nn3cnnc3c3ccccc23)ccc1O`, the EC50 was 2360 nM.

Take `COc1ccc2nc(-c3ccco3)c(-c3ccco3)nc2c1`: the EC50 entry was “inactive”.

Take `Cc1ccc(O)c(NC2=C(Cl)C(=O)N(Cc3ccccc3)C2=O)c1`: the EC50 result was “inactive”.

Take `COCCCNc1nc(=S)[nH]c2cc(OC)c(OC)cc12`: the EC50 is 5350 nM.

In the case of `CCOCCCNc1nc(=S)[nH]c2cc(OC)c(OC)cc12`, the EC50 entry is “inactive”.

On to `COCCCn1c(N)c(C(=O)Nc2sc3c(c2C(=O)OC)CCCC3)c2nc3ccccc3nc21`, for which the EC50 is 2550 nM.

Staying with this assay, now noted: multiplex bead flow cytometry, MCF, stronger effect = higher value, concentration not given here.
In the case of `C1=CC2c3ccccc3NC(c3ccncc3)C2C1` (stereo not given), the percent span inhibition entry is “inactive”.

Take `Cc1ccc(C)n1-c1cccc(C(=O)O)c1`: the percent span inhibition result is “inactive”.

Regarding `COc1cc2c(cc1OC)C(c1ccccc1F)OC(=O)C2` (stereo not given), the percent span inhibition result was “inactive”.

Turning to `CC1(C)CC(NC(=O)COc2ccc([N+](=O)[O-])cc2)CC(C)(C)N1`, the percent span inhibition entry is “inactive”.

For the molecule `O=C(Cn1cncc1-c1ccc([N+](=O)[O-])cc1)Nc1ccccc1F`, the percent span inhibition result is “inactive”.

Consider `O=C1/C(=C\c2ccc(-c3ccccc3Cl)o2)SC(=S)N1CC1CCCO1` (stereo not given), for which the percent span inhibition result is “inactive”.

Consider `CCn1c(SCC(=O)Nc2ccccc2-c2ccccc2)nnc1-c1ccoc1C`, for which the percent span inhibition result was “inactive”.

Regarding `CC(C(=O)Nc1cc([N+](=O)[O-])ccc1Cl)N1CCN(c2ccc(O)cc2)CC1` (stereo not given), the percent span inhibition result was “inactive”.

With `CCOc1cc(CNc2ccc(N(C)C)cc2)cc(Br)c1OCC(=O)NC(C)(C)C`, the percent span inhibition entry was “inactive”.

Consider `COc1ccc(NC(=O)/C(Cl)=C(/Cl)S(=O)Cc2ccccc2)cn1` (stereo not given), for which the percent span inhibition entry is “inactive”.

As for `O=C1CCc2cc(S(=O)(=O)NCCCC(=O)N3CCN(Cc4ccc5c(c4)OCO5)CC3)ccc2N1`, the percent span inhibition entry is “inactive”.

Turning to `CCc1cccc(NC(=O)COc2ccccc2)c1`, the percent span inhibition entry was “inactive”.

As for `Cc1ccccc1-n1nc(SCC(=O)O)sc1=S`, the percent span inhibition result is “inactive”.

Consider `Cc1ccc(-c2cc(C(=O)N3CCN(c4ncccn4)CC3)c3cc(Br)ccc3n2)o1`, for which the percent span inhibition entry is “inactive”.

Regarding `Cc1ccc(-c2cc(-c3ccc4c(c3)OCO4)c(C#N)c(N)n2)o1`, the percent span inhibition result was “inactive”.

For `COc1ccc(C)cc1-n1c(=O)c2ccccc2c2ccccc2c1=O`, the percent span inhibition result was “inactive”.

On to `O=C(CC1NCCNC1=O)Nc1cccc([N+](=O)[O-])c1` (stereo not given), for which the percent span inhibition result was “inactive”.

Regarding `O=C(NCc1ccco1)C1CC2CCC1C2` (stereo not given), the percent span inhibition entry was “inactive”.

With `COCCn1nnnc1CN(Cc1ccco1)Cc1cc2cc3c(cc2[nH]c1=O)OCO3`, the percent span inhibition result is “inactive”.

With `COc1ccc(C(=O)Nc2ccc(NC(=O)c3cccs3)cc2)cc1Cl`, the percent span inhibition result was “inactive”.

As for `Nc1ccc(C2=Nc3cccc4cccc(c34)N2)cc1`, the percent span inhibition entry is “inactive”.

As to `Cc1ccc(/C=C/C(=O)c2ccccc(=O)c2O)cc1C`, the percent span inhibition entry was “inactive”.

Turning to `CCNC(=O)N1c2ccc(OCC)cc2C(C)=CC1(C)C`, the percent span inhibition result was “inactive”.

For the molecule `COc1cccc2c(SCC(=O)N/N=C/c3ccc(O)c(O)c3)cc(C)nc12`, the percent span inhibition result was “inactive”.

As to `COc1cc(/C=C2\SC(=S)NC2=O)ccc1OS(=O)(=O)c1ccccc1`, the percent span inhibition entry is “inactive”.

For the molecule `CCOC(=O)C1(CC/C(C)=N\NC(N)=O)CC(C)(C)OC1=O` (stereo not given), the percent span inhibition result was “inactive”.

As to `C=CCn1c(C)cc(-c2csc(NC)n2)c1C`, the percent span inhibition entry is “inactive”.

`CCOC(=O)C1=C(Cc2ccc(C)cc2)C(=O)c2ccccc2C1=O`: the percent span inhibition result is “inactive”.

On to `COC(=O)CSc1nccc(-c2cccs2)n1`, for which the percent span inhibition entry was “inactive”.

Consider `CC(C)(C)C(=O)NC(NC(=S)Nc1ccc(S(N)(=O)=O)cc1)C(Cl)(Cl)Cl` (stereo not given), for which the percent span inhibition entry was “inactive”.

Turning to `Cc1ccc(-c2cc(C(=O)Nc3ccccn3)c3ccccc3n2)o1`, the percent span inhibition entry is “inactive”.

`CCOc1ccccc1CNc1ccc(O)cc1`: the percent span inhibition result is “inactive”.

Turning to `COC(=O)C1C2c3ccccc3OC1(C)N=c1s/c(=C/c3cnn(C)c3C)c(=O)n12` (stereo not given), the percent span inhibition entry is “inactive”.

As to `CN(C)C(=O)N1CCC(C(=O)NC2CCCCCCC2)CC1`, the percent span inhibition result is “inactive”.

As for `COc1cc(/C=C2\CC/C(=C\c3cc(OC)c(O)c(OC)c3)C2=O)cc(OC)c1O`, the percent span inhibition entry was “inactive”.

In the case of `CCc1cccc(CC)c1NC(=S)N1CCn2cccc2C1c1cccnc1` (stereo not given), the percent span inhibition entry was “inactive”.

On to `C=CS(=O)c1sc(Cl)c(N2CCOCC2)c1[N+](=O)[O-]` (stereo not given), for which the percent span inhibition result is “inactive”.

For `Nc1ccc(Nc2nc(-c3ccncc3)cs2)cc1`, the percent span inhibition result is “inactive”.

`CC(=O)Nc1ccc(-n2cc(-c3ccccc3)[nH]c2=S)cc1`: the percent span inhibition result was “inactive”.

Turning to `OC(COc1ccc2ccccc2c1)CN1CCCC1` (stereo not given), the percent span inhibition result was “inactive”.

For the molecule `Cc1nc2cc(F)ccc2n1C1CCN(C(=O)c2c(F)cccc2F)CC1`, the percent span inhibition result is “inactive”.

For the molecule `COc1ccc(S(=O)(=O)NCCOc2cccc3cccnc23)cc1OC`, the percent span inhibition entry was “inactive”.

`Clc1ccc2c(N/N=C/c3ccc(Br)cc3)ccnc2c1`: the percent span inhibition result was “inactive”.

Take `CCOC(=O)N1CCC(c2cc(=O)n(-c3ccccc3)[nH]2)CC1`: the percent span inhibition result is “inactive”.

As to `O=C1/C(=C/c2cccs2)Sc2ccccc21`, the percent span inhibition result was “inactive”.

As for `Cn1c(OCc2cccnc2)nc2c1c(=O)n(Cc1ccccc1)c(=O)n2C`, the percent span inhibition entry is “inactive”.

Take `COc1ccccc1-n1c(-c2ccc(Cl)cc2)c[nH]c1=S`: the percent span inhibition entry is “inactive”.

Consider `COc1ccccc1Oc1ccc2c(c1)C(=O)N(c1ccccc1)C2=O`, for which the percent span inhibition entry was “inactive”.

`COc1ccc2c3c(cccc13)N(C)N=C2C`: the percent span inhibition entry was “inactive”.

Consider `N#Cc1cc(-c2ccccc2)nn1-c1ccccc1`, for which the percent span inhibition entry is “inactive”.

In the case of `Cc1cc(-c2nnc(CCC(=O)NC(C)c3cccc4ccccc34)o2)no1` (stereo not given), the percent span inhibition result was “inactive”.

Regarding `CCOC(=O)c1cc2c(=O)n3ccccc3nc2n(Cc2ccco2)c1=NC(=O)c1ccccc1OC`, the percent span inhibition result is “inactive”.

On to `Cc1ccc2nc3c(cc(C(N)=S)c(=N)n3CCCOC(C)C)c(=O)n2c1`, for which the percent span inhibition entry was “inactive”.

Turning to `Cc1noc(C)c1CN1C(=O)NC(Cc2ccccc2)(Cc2ccccc2)C1=O`, the percent span inhibition entry is “inactive”.

For the molecule `CN(C)S(=O)(=O)N(CC(=O)Nc1ccccc1C(F)(F)F)c1ccccc1`, the percent span inhibition entry is “inactive”.

Consider `Cc1sc2nc(C(C)C)nc(SCC(=O)N3c4ccccc4CC3C)c2c1C` (stereo not given), for which the percent span inhibition result was “inactive”.

Regarding `CNCc1ccccc1Sc1ccc(O)c(O)c1`, the percent span inhibition entry is “inactive”.

With `COc1ccc(NC(=O)c2sccc2SCc2cccc(C(F)(F)F)c2)cc1`, the percent span inhibition result is “inactive”.

For `Cc1nn(-c2ccc(Cl)cc2)c(Cl)c1/C=C(\C#N)C(N)=O`, the percent span inhibition entry was “inactive”.

As to `Cc1ccc(CC(=O)OCCNC(=O)c2cccnc2)cc1`, the percent span inhibition result is “inactive”.

With `CCN(CC)c1ccc(-c2nn3c(-c4n[nH]c5c4CCC5)nnc3s2)cc1`, the percent span inhibition result was “inactive”.

Regarding `CCN1CCN(CC(=O)c2c[nH]c3ccc(C)cc23)CC1`, the percent span inhibition entry was “inactive”.

Turning to `COc1ccc(NC(=O)c2ccc(CN3CCN(c4ccccc4)CC3)cc2)cc1`, the percent span inhibition result is “inactive”.

As for `Cc1cc(NC(=O)CCCC(=O)N(CC(=O)NC2CCCCC2)c2ccccc2)no1`, the percent span inhibition entry is “inactive”.

Turning to `Cc1ccc(OCc2cn3cccnc3n2)cc1`, the percent span inhibition entry is “inactive”.

Regarding `COC(=O)CSc1ncnc2c1sc1nc(-c3ccco3)c3c(c12)CC(C)(C)OC3`, the percent span inhibition result was “inactive”.

For the molecule `Cc1ccccc1OCC(=O)N/N=C/c1ccccn1`, the percent span inhibition result is “inactive”.

For the molecule `Cc1ccc(-c2cc(C(=O)Nc3ccccc3C)c3ccccc3n2)o1`, the percent span inhibition entry was “inactive”.

`Cc1ccc(/C=C2\CCCC3=C2NC(=S)NC3c2ccc(C)cc2)cc1` (stereo not given): the percent span inhibition result was “inactive”.

Turning to `O=[N+]([O-])c1cccc(S(=O)(=O)NCC2CCCO2)c1` (stereo not given), the percent span inhibition entry is “inactive”.

On to `S=c1[nH]cc(-c2ccccc2)n1-c1ccccc1`, for which the percent span inhibition entry was “inactive”.

As to `S=C(Nc1ccc(N2CCOCC2)cc1)Nc1ccc2nc(-c3ccco3)c(-c3ccco3)nc2c1`, the percent span inhibition result is “inactive”.

Take `COc1cc(/C=N/NC(=O)CN(Cc2ccco2)S(=O)(=O)c2ccccc2)ccc1O`: the percent span inhibition result is “inactive”.

On to `CN(C)c1ccc(C=C2C(=O)NC(=O)NC2=O)cc1[N+](=O)[O-]`, for which the percent span inhibition result was “inactive”.

With `Cc1cc(C)nc(/N=c2/ssnc2Cl)c1`, the percent span inhibition result was “inactive”.

As for `Cn1c(=O)c2c(nc(NCCO)n2CCc2ccccc2)n(C)c1=O`, the percent span inhibition entry was “inactive”.

As to `OCCC1CN(Cc2ccc3ncccc3c2)CCN1Cc1ccccc1` (stereo not given), the percent span inhibition result was “inactive”.

In the case of `Cc1ccc(NC(=O)c2cc(S(=O)(=O)NCCC3=CCCCC3)ccc2F)cc1F`, the percent span inhibition entry is “inactive”.

Regarding `CCOC(=O)CSC1=NC(=O)/C(=C/c2ccc(Br)cc2)S1`, the percent span inhibition entry is “inactive”.

For `COc1ccccc1-n1c(-c2cc(-c3ccc(F)cc3)n[nH]2)n[nH]c1=S`, the percent span inhibition result was “inactive”.

In the case of `O=C(Nc1nnc(COc2ccc(Cl)cc2)s1)c1ccco1`, the percent span inhibition result was “inactive”.

For `CCN1CCN(c2ccc(NC(=O)c3ccc4c(c3)[nH]c(=O)n4Cc3ccc(OC)cc3)cc2)CC1`, the percent span inhibition entry is “inactive”.

Consider `O=C(COc1ccccc1)Nc1ccc2c(c1)Cc1cc(NC(=O)COc3ccccc3)ccc1-2`, for which the percent span inhibition entry was “inactive”.
